Blank lines part the entries; values can stand above or below the compound they belong to.
Assays:
[1] = Thermogravimetric analysis of the Form III solvate; format: physicochemical; settings: 6 milligram sample, nitrogen purge, increase of 5° C. per minute (FIG. 4)
Experimental: Suitable temperatures for the conversion of the Form III solvate to the Form II crystal structure of 6-O-methylerythromycin A can vary depending on the conditions of the reaction. […] At atmospheric pressure, the preferred temperatures for the conversion of the Form III solvate to Form II are from about 80° C. to about 180° C. The more preferred temperatures for the conversion are from about 90° C. to about 105° C. Thermogravimetric analysis was conducted in the following manner. A T.A. Instruments Hi-Res thermogravimetric analyzer with Thermogravimetric Analyzer module 2950 was used along with DuPont 2100 TGA software version 5.1 A. The analysis parameters were: sample weight 6.3640 milligrams; heating rate was room temperature to 200° C. at 5° C./minute under a nitrogen purge.

[2] = Crystal form of the recrystallized solid after drying/heating, by powder X-ray diffraction; format: physicochemical
Experimental: Solids from the recrystallization were prepared according to the methods described above and analyzed under standard conditions with a calibrated Scintag X-ray diffraction system.
The wet solid was allowed to dry at room temperature. The air-dried sample was analyzed and the powder X-ray diffraction data was consistent with the powder X-ray diffraction pattern of a 6-O-methylerythromycin A Form III crystal structure. The air-dried sample was heated to a temperature between about 40° C. to about 45° C. in a calibrated vacuum oven for five days at atmospheric pressure.
A wet solid sample obtained from the recrystallization was heated in a calibrated convection oven to a temperature between about 100° C. and 105° C. […] The testing conditions and the corresponding result are summarized below in Table 1.
Crystallographic data was obtained by solvate single crystal analysis using a Scintag XDS-2000 powder X-ray diffraction system. Samples for X-ray diffraction analysis were prepared by spreading the sample powder (with no prior grinding required) in a thin layer on the sample holder and gently flattening the sample with a microscope slide. A Scintag X-ray Diffraction system was used with the following parameters: X-ray source is CuKα; range is 2-35°; scan rate is 1.00 degree/minute; step size is 0.0300 degree; and wavelength is 1.54060 angstroms.

SMILES: CC[C@H]1OC(=O)[C@H](C)[C@@H](OC2CC(C)(OC)C(O)C(C)O2)[C@H](C)[C@@H](OC2OC(C)CC(N(C)C)C2O)[C@@](C)(OC)C[C@@H](C)C(=O)[C@H](C)[C@@H](O)[C@]1(C)O (some centres unmarked) [Form III solvate, 6-O-methylerythromycin A acetonitrile solvate]
Temperature of conversion of Form III solvate to Form II crystal structure [1]: about 175 °C

SMILES: CC[C@H]1OC(=O)[C@H](C)[C@@H](OC2CC(C)(OC)C(O)C(C)O2)[C@H](C)[C@@H](OC2OC(C)CC(N(C)C)C2O)[C@@](C)(OC)C[C@@H](C)C(=O)[C@H](C)[C@@H](O)[C@]1(C)O (some centres unmarked) [Sample 1, 6-O-methylerythromycin A acetonitrile solvate]
Analytical Result (crystal form by powder X-ray diffraction) ([2]; wet solid from acetonitrile recrystallization): Form III spectra

Other lines, results leading:

Analytical Result (crystal form by powder X-ray diffraction) ([2]; air dried solid, room temperature): Form III spectra
SMILES: CC[C@H]1OC(=O)[C@H](C)[C@@H](OC2CC(C)(OC)C(O)C(C)O2)[C@H](C)[C@@H](OC2OC(C)CC(N(C)C)C2O)[C@@](C)(OC)C[C@@H](C)C(=O)[C@H](C)[C@@H](O)[C@]1(C)O (some centres unmarked) [Sample 2, 6-O-methylerythromycin A acetonitrile solvate]

Analytical Result (crystal form by powder X-ray diffraction) ([2]; heat 40° C.-45° C., 5 days): Form III spectra
SMILES: CC[C@H]1OC(=O)[C@H](C)[C@@H](OC2CC(C)(OC)C(O)C(C)O2)[C@H](C)[C@@H](OC2OC(C)CC(N(C)C)C2O)[C@@](C)(OC)C[C@@H](C)C(=O)[C@H](C)[C@@H](O)[C@]1(C)O (some centres unmarked) [Sample 3, 6-O-methylerythromycin A acetonitrile solvate]

Analytical Result (crystal form by powder X-ray diffraction) ([2]; heat to 100° C.-105° C., 24 hours): Form II spectra
SMILES: CC[C@H]1OC(=O)[C@H](C)[C@@H](OC2CC(C)(OC)C(O)C(C)O2)[C@H](C)[C@@H](OC2OC(C)CC(N(C)C)C2O)[C@@](C)(OC)C[C@@H](C)C(=O)[C@H](C)[C@@H](O)[C@]1(C)O (some centres unmarked) [Sample 4, 6-O-methylerythromycin A]
